From PubChem BioAssay (NCI)
Values joined by “and” are separate entries in the source; they are usually repeats but may differ in a detail not shown here. Equal entries are not always repeated.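 Assay format: 96-well plates, 48-hour exposure. At the GI50, growth is halved. The concentration for full growth arrest is given as TGI.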

Assays:
Assay in all cases: NCI anticancer screen, dose series, 48 h
SF-539 CNS = system: SF-539 CNS
M14 melanoma = system: M14 melanoma
EKVX NSCLC = system: EKVX NSCLC
CAKI-1 renal = system: CAKI-1 renal
SF-295 CNS = system: SF-295 CNS
SNB-19 CNS = system: SNB-19 CNS
HT29 colon = system: HT29 colon
NCI-H522 lung = system: NCI-H522 lung
NCI/ADR-RES ovarian = system: NCI/ADR-RES ovarian
T-47D breast = system: T-47D breast

## COc1ccc2cc3n(c(=O)c2c1)CCc1c-3cc(OC)c(OC)c1OC
SF-539 CNS
  TGI: > 100 µM
M14 melanoma
  TGI: > 100 µM
EKVX NSCLC
  TGI: > 100 µM
CAKI-1 renal
  TGI: > 100 µM
SF-295 CNS
  TGI: > 100 µM
SNB-19 CNS
  TGI: > 100 µM
HT29 colon
  TGI: > 100 µM
NCI-H522 lung
  TGI: > 100 µM

## Nc1ccccc1C(=O)/C=C/c1ccccc1O
SF-539 CNS
  TGI: > 100 µM
M14 melanoma
  TGI: > 100 µM
EKVX NSCLC
  TGI: > 100 µM
CAKI-1 renal
  TGI: > 100 µM
SF-295 CNS
  TGI: > 100 µM
SNB-19 CNS
  TGI: > 100 µM
HT29 colon
  TGI: > 100 µM
NCI-H522 lung
  TGI: > 100 µM

## CC(C)(C)C1CC[C@H]2c3c([nH]c4ccccc34)[C@H]3C(=O)N(c4ccc(F)cc4)C(=O)[C@H]3[C@H]2C1 (stereo partly specified)
SF-539 CNS
  TGI: 35.9 µM
M14 melanoma
  TGI: 38.4 µM
EKVX NSCLC
  TGI: 36.9 µM
CAKI-1 renal
  TGI: 32.5 µM
SF-295 CNS
  TGI: 28.3 µM
SNB-19 CNS
  TGI: 29.8 µM
NCI-H522 lung
  TGI: 25.3 µM

## COC1=CC(=O)C(O)=C(CC2(C)C(C)CCC3(C)C2CCCC3(C)C)C1=O (stereo unspecified)
SF-539 CNS
  TGI: 9.49 µM
M14 melanoma
  TGI: 7.65 µM
EKVX NSCLC
  TGI: 69.7 µM
CAKI-1 renal
  TGI: 16.7 µM
SF-295 CNS
  TGI: 16.3 µM
SNB-19 CNS
  TGI: 19.3 µM
HT29 colon
  TGI: 23.1 µM
NCI-H522 lung
  TGI: 13 µM

## CN(C)c1ccc(/C=N/N=C(\C#N)[S][Sn]([Cl])([c]2ccccc2)[c]2ccccc2)cc1
NCI/ADR-RES ovarian
  GI50: 2.01 µM
  TGI: 4.76 µM
SF-539 CNS
  GI50: 1.7 µM
  TGI: 3.3 µM
M14 melanoma
  GI50: 1.72 µM
  TGI: 3.38 µM
EKVX NSCLC
  GI50: 1.67 µM
  TGI: 4.12 µM
CAKI-1 renal
  GI50: 1.27 µM
  TGI: 2.56 µM
SF-295 CNS
  GI50: 2.29 µM
  TGI: 5.48 µM
SNB-19 CNS
  GI50: 1.99 µM
  TGI: 3.65 µM
HT29 colon
  GI50: 2.08 µM
  TGI: 4.18 µM
NCI-H522 lung
  GI50: 0.127 µM
  TGI: 0.369 µM

## O=C(O)c1cn(C2CC2)c2cc(N3CCN(C(=O)N(c4ccccc4)c4nc(-c5ccccc5)cs4)CC3)c(F)cc2c1=O
M14 melanoma
  GI50: 0.437 µM
  TGI: > 100 µM
EKVX NSCLC
  GI50: 0.397 µM
  TGI: > 100 µM
T-47D breast
  GI50: 2.3 µM
  TGI: > 100 µM
SF-295 CNS
  GI50: 0.305 µM
  TGI: 3.04 µM
SNB-19 CNS
  GI50: 0.416 µM
  TGI: > 100 µM

## CC(C)(C)C1CCC(O)(c2ccccc2)CC1 (stereo unspecified)
SF-539 CNS
  TGI: > 100 µM and 45.4 µM
M14 melanoma
  TGI: > 100 µM and 42.8 µM
EKVX NSCLC
  TGI: > 100 µM and 75.3 µM
SF-295 CNS
  TGI: > 100 µM
SNB-19 CNS
  TGI: > 100 µM
HT29 colon
  TGI: > 100 µM and 30.2 µM
NCI-H522 lung
  TGI: > 100 µM and 55.1 µM

## O=C(CCN1CCOCC1)Nc1ccc(Cn2nnc3c2C(=O)c2nnn(Cc4ccc(NC(=O)CCN5CCOCC5)cc4)c2C3=O)cc1
NCI/ADR-RES ovarian
  GI50: > 100 µM
  TGI: > 100 µM
SF-539 CNS
  GI50: 0.913 µM
  TGI: 5.11 µM
M14 melanoma
  GI50: 6.74 µM
  TGI: > 23.1 µM
EKVX NSCLC
  GI50: > 100 µM
  TGI: > 100 µM
CAKI-1 renal
  GI50: > 100 µM
  TGI: > 100 µM
SF-295 CNS
  GI50: > 25.7 µM
  TGI: > 100 µM
SNB-19 CNS
  GI50: 1.56 µM
  TGI: 3.07 µM
HT29 colon
  GI50: 1.24 µM
  TGI: > 100 µM
NCI-H522 lung
  GI50: 1.63 µM
  TGI: 4.34 µM

## CC1(C)CC(=O)C(C(=O)Nc2cccs2)=C(O)C1
SF-539 CNS
  TGI: > 100 µM
M14 melanoma
  TGI: > 100 µM
EKVX NSCLC
  TGI: > 100 µM
CAKI-1 renal
  TGI: 43.6 µM
SF-295 CNS
  TGI: > 100 µM
SNB-19 CNS
  TGI: > 100 µM
HT29 colon
  TGI: > 100 µM
NCI-H522 lung
  TGI: > 100 µM

## CNS(=O)(=O)NNS(=O)(=O)c1ccc(C)cc1
SF-539 CNS
  TGI: > 100 µM
M14 melanoma
  TGI: > 100 µM
EKVX NSCLC
  TGI: > 100 µM
CAKI-1 renal
  TGI: > 100 µM
SF-295 CNS
  TGI: > 100 µM
SNB-19 CNS
  TGI: > 100 µM
HT29 colon
  TGI: > 100 µM
NCI-H522 lung
  TGI: > 100 µM

## CN(C)c1ccc(/C=c2/sc3nc(=O)c(-c4ccccc4NC(=O)C(F)(F)F)nn3c2=O)cc1
SF-539 CNS
  TGI: > 100 µM
M14 melanoma
  TGI: > 100 µM
EKVX NSCLC
  TGI: > 100 µM
CAKI-1 renal
  TGI: > 100 µM
SF-295 CNS
  TGI: > 100 µM
SNB-19 CNS
  TGI: > 100 µM
HT29 colon
  TGI: > 100 µM
NCI-H522 lung
  TGI: > 100 µM

## CC(C)(C)c1ccc(OCCOCCOc2ccc(C(C)(C)C)cc2S(N)(=O)=O)c(S(N)(=O)=O)c1
SF-539 CNS
  TGI: > 100 µM
M14 melanoma
  TGI: > 100 µM
EKVX NSCLC
  TGI: > 100 µM
CAKI-1 renal
  TGI: > 100 µM
SF-295 CNS
  TGI: > 100 µM
SNB-19 CNS
  TGI: > 100 µM
HT29 colon
  TGI: > 100 µM

## N#Cc1c(CC(=O)O)cc(=O)n2c1[nH]c1ccccc12
SF-539 CNS
  TGI: > 100 µM
M14 melanoma
  TGI: > 100 µM
EKVX NSCLC
  TGI: > 100 µM
CAKI-1 renal
  TGI: > 100 µM
SF-295 CNS
  TGI: > 100 µM
SNB-19 CNS
  TGI: > 100 µM
HT29 colon
  TGI: > 100 µM

## O=C(/C=C(\[O-])c1ccccc1)CCCCCCC(=O)/C=C(\[O-])c1ccccc1.O=C(/C=C(\[O-])c1ccccc1)CCCCCCC(=O)/C=C(\[O-])c1ccccc1.O=C(/C=C(\[O-])c1ccccc1)CCCCCCC(=O)/C=C(\[O-])c1ccccc1.[Y+3].[Y+3]
SF-539 CNS
  GI50: 31.8 µM
  TGI: > 50 µM
M14 melanoma
  GI50: > 50 µM
  TGI: > 50 µM
EKVX NSCLC
  GI50: > 50 µM
  TGI: > 50 µM
CAKI-1 renal
  GI50: > 50 µM
  TGI: > 50 µM
SF-295 CNS
  GI50: > 50 µM
  TGI: > 50 µM
SNB-19 CNS
  GI50: 19 µM
  TGI: > 50 µM
HT29 colon
  GI50: > 50 µM
  TGI: > 50 µM
NCI-H522 lung
  GI50: 9.86 µM
  TGI: 37.9 µM

## CCCCCNC(=O)CCCCCCCCCCCNC(=O)CCCCCCCCCCN1C=CC(=CC=C2C=CC(=O)C=C2)C=C1
SF-539 CNS
  TGI: > 100 µM
M14 melanoma
  TGI: > 100 µM
EKVX NSCLC
  TGI: > 100 µM
CAKI-1 renal
  TGI: > 100 µM
SF-295 CNS
  TGI: > 100 µM
SNB-19 CNS
  TGI: > 100 µM
HT29 colon
  TGI: > 100 µM
NCI-H522 lung
  TGI: > 100 µM
